Source: PMC2654417 (Combinatorial chemistry & high throughput screening, 2008)
Read-outs that look alike come from different tables or passages of the source.

Target: T1, glucocorticoid receptor (GR) (Homo sapiens, UniProt P04150)
T1 sequence (P04150 1-777): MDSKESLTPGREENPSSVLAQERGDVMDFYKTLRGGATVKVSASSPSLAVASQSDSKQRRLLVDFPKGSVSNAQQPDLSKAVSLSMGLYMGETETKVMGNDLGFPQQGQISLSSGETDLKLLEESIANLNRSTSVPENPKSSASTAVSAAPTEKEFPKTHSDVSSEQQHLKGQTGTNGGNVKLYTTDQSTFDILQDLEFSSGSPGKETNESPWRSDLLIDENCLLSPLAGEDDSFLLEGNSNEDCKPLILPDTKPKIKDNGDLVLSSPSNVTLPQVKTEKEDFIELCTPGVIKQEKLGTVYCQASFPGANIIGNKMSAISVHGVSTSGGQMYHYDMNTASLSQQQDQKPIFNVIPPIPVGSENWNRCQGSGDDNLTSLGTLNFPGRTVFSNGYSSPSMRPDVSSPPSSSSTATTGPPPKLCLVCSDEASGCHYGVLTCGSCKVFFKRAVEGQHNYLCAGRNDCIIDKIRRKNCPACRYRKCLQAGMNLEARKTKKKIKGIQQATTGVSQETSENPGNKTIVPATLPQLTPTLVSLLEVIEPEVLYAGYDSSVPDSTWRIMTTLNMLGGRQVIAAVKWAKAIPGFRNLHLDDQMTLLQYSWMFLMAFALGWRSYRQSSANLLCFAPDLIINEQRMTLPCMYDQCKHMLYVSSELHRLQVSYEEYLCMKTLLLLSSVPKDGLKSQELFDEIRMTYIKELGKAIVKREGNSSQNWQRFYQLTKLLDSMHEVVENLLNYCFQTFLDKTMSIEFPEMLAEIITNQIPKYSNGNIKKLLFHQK
Experiment: GR-EFC nuclear translocation assay
Format: cell-based
Settings: for qHTS Hill Slope: Hill slope of the qHTS curve fit; for log qEC50: log10 of qEC50 in M, printed as negative values; for qHTS Max Activity: maximal activity of the qHTS curve, inactive threshold […] (3σ); for EC50: read-out: qEC50

[1] = class 4 values are fit defaults
[2] = qHTS curve fit, class 4 values are fit defaults

Row | SMILES | qHTS Hill Slope | log qEC50 [1] | qHTS Max Activity | EC50 [2] [µM] | EC50 [µM] | qHTS Curve Class
1 | CC(=O)OCC(=O)[C@@]1(O)CC[C@H]2[C@@H]3CCC4=CC(=O)C=C[C@]4(C)[C@@]3(F)[C@@H](O)C[C@@]21C [NCGC00016433-01] | 0.52 | −7.456 | 80.8 | 0.035 |  | 
2 | C[C@@]12CCC(=O)C=C1CC[C@@H]1[C@@H]2[C@H](O)C[C@]2(C)[C@@H]1CC[C@]2(O)C(=O)COC(=O)CCC(=O)[O-].[Na+] [NCGC00016153-01] | 0.62 | −5.952 | 100.0 | 1.12 |  | 
3 | C=C(C)[C@H]1CC[C@]2(C(=O)O)CC[C@]3(C)[C@@H](CC[C@H]4[C@@]5(C)CC[C@@H](O)C(C)(C)[C@@H]5CC[C@@]43C)[C@H]12 [NCGC00016449-01] |  |  |  |  | > 9 | 4 (inactive, where activity was below 28.6% (3σ for the present assay))
4 | CCC[C@@H]1CC2=CC(=O)CC[C@]2(C)[C@@H]2CC[C@@]3(C)[C@H](CC[C@]3(O)CCC(=O)O)[C@H]12 [NCGC00025253-01] |  |  |  | > 9 |  | 
5 | C[C@@H]1[C@H](C)CC[C@@]2(C(=O)O)CC[C@]3(C)C(=CC[C@H]4[C@@]5(C)CC[C@@H](O)C(C)(C)[C@@H]5CC[C@@]43C)[C@@H]12 [NCGC00016318-01] |  |  |  |  | > 9 | 4 (inactive, where activity was below 28.6% (3σ for the present assay))
6 | C[C@@]12CC[C@H]3[C@@H](CC=C4C[C@H](OS(=O)(=O)O)CC[C@]43C)[C@H]1CCC2=O [NCGC00016143-01] |  |  |  | > 9 |  | 
7 | CC(=O)O[C@H]1C[C@H]2CC[C@@H]3[C@@H](CC[C@]4(C)[C@H](OC(C)=O)[C@H]([N+]5(C)CCCCC5)C[C@@H]34)[C@]2(C)C[C@H]1[N+]1(C)CCCCC1 [NCGC00016716-01] |  |  |  | > 9 |  | 
8 | CC(=O)O[C@H]1C[C@H]2CC[C@@H]3[C@H]4C[C@@H]([N+]5(C)CCCCC5)[C@@H](OC(C)=O)[C@]4(C)CC[C@@H]3[C@@]2(C)C[C@@H]1[N+]1(C)CCCCC1 [NCGC00024736-01] |  |  |  | > 9 |  | 
9 | C[C@@H]1[C@H]2CC[C@@H]3[C@@H]4CC=C5C[C@@H](N(C)C)CC[C@]5(C)[C@@H]4CC[C@@]32CN1C [NCGC00016502-01] |  |  |  | > 9 |  | 
10 | CC(=O)O[C@H]1C[C@@]2(C)[C@@H](C[C@@H](O)[C@H]3[C@@]4(C)CC[C@@H](O)[C@@H](C)[C@@H]4CC[C@@]32C)/C1=C(\CCC=C(C)C)C(=O)[O-].[Na+] [NCGC00017030-01] |  |  |  |  | > 9 | 4 (inactive, where activity was below 28.6% (3σ for the present assay))
11 | C[C@]12CC[C@H](O)C[C@@H]1CC[C@H]1[C@H]2CC[C@]2(C)[C@H](C(=O)CO)CC[C@@H]12 [NCGC00015805-01] |  |  |  | > 9 |  | 
12 | COc1cc2c(cc1OC)-c1c(OC)c(OC)c(CO)c3c1[C@H](C2)N(C)CC3 [NCGC00017307-01] |  |  |  |  | > 9 | 4 (inactive, where activity was below 28.6% (3σ for the present assay))
13 | CC(=O)OCC(=O)[C@@]1(O)CC[C@@H]2[C@H]3CCC4=CC(=O)CC[C@]4(C)[C@]3(F)[C@@H](O)C[C@@]21C [NCGC00016476-01] | 0.75 |  | 74.0 |  |  | 
14 | CC(=O)OCC(=O)[C@@]1(OC(C)=O)[C@H](C)C[C@H]2[C@@H]3C[C@H](F)C4=CC(=O)C=C[C@@]4(C)[C@]3(F)[C@H](O)C[C@@]21C [NCGC00016822-01] | 0.44 | −7.111 | 80.7 | 0.0775 |  | 
15 | CC1(C)O[C@@H]2C[C@H]3[C@@H]4C[C@H](F)C5=CC(=O)C=C[C@]5(C)[C@H]4[C@@H](O)C[C@]3(C)[C@]2(C(=O)CO)O1 [NCGC00016983-01] | 0.57 | −8.315 | 97.1 | 0.00485 |  | 
16 | CC1(C)O[C@@H]2C[C@H]3[C@@H]4C[C@H](F)C5=CC(=O)CC[C@]5(C)[C@H]4[C@@H](O)C[C@]3(C)[C@]2(C(=O)CO)O1 [NCGC00016586-01] | 0.69 | −7.725 | 104.7 | 0.0188 |  | 
17 | C[C@@]12CC(=O)[C@H]3[C@@H](CCC4=CC(=O)CC[C@]43C)[C@H]1CCC2=O [NCGC00016440-01] |  |  |  | > 9 |  | 
18 | C[C@H]1CC[C@]2(NC1)O[C@@H]1C[C@@H]3[C@@H]4CC=C5C[C@H](O)CC[C@@]5(C)[C@H]4CC[C@@]3(C)[C@H]1[C@@H]2C [NCGC00017170-01] |  |  |  | > 9 |  | 
19 | C[C@@]12CC[C@H]3[C@@H](CCC4=C(O)C(=O)CC[C@]43C)[C@H]1CCC2=O [NCGC00015070-01] |  |  |  | > 9 |  | 
20 | CC(=O)O[C@]1(C(C)=O)CC[C@H]2[C@@H]3C=C(C)C4=CC(=O)CC[C@]4(C)[C@H]3CC[C@@]21C [NCGC00016516-01] | 0.49 | −7.254 | 47.2 | 0.0557 |  | 
21 | CC(=O)[C@@]1(O)CC[C@H]2[C@@H]3C[C@H](C)C4=CC(=O)C=C[C@]4(C)[C@@]3(F)[C@@H](O)C[C@@]21C [NCGC00016442-01] | 0.63 | −8.086 | 84.0 | 0.00821 |  | 
22 | C=C(C)[C@H]1CC[C@]2(CO)CC[C@]3(C)[C@@H](CC[C@H]4[C@@]5(C)CC[C@@H](O)C(C)(C)[C@@H]5CC[C@@]43C)[C@H]12 [NCGC00016450-01] |  |  |  |  | > 9 | 4 (inactive, where activity was below 28.6% (3σ for the present assay))

Further lines, with some results ahead:

Row | qHTS Hill Slope | log qEC50 [1] | qHTS Max Activity | EC50 [2] [µM] | EC50 [µM] | SMILES | qHTS Curve Class
23 |  |  |  |  | > 9 | C#C[C@]1(O)CC[C@H]2[C@@H]3CCC4=CCCC[C@@H]4[C@H]3CC[C@@]21C [NCGC00016233-01] | 4 (inactive, where activity was below 28.6% (3σ for the present assay))
24 |  |  |  | > 9 |  | C[C@H](CCC(=O)O)[C@H]1CC[C@H]2[C@@H]3[C@H](O)C[C@@H]4C[C@H](O)CC[C@]4(C)[C@H]3C[C@H](O)[C@]12C [NCGC00013426-01] | 
25 |  |  |  | > 9 |  | C[C@H](CCC(=O)O)[C@H]1CC[C@@H]2[C@H]3CC[C@H]4C[C@@H](O)CC[C@@]4(C)[C@H]3CC[C@]21C [NCGC00016445-01] | 
26 |  |  |  | > 9 |  | C[C@@]12CC[C@@H]3c4ccc(O)cc4CC[C@H]3[C@H]1C[C@@H](O)[C@H]2O [NCGC00016217-01] | 
27 | 0.52 | −8.507 | 77.5 | 0.00311 |  | CCC(=O)[C@@]1(C)[C@H](C)C[C@H]2[C@@H]3CCC4=CC(=O)C=C[C@]4(C)[C@H]3[C@@H](O)C[C@@]21C [NCGC00016856-01] | 
28 |  |  |  |  | > 9 | C#C[C@]1(O)CC[C@H]2[C@H]3CCC4=Cc5oncc5C[C@]4(C)[C@@H]3CC[C@]21C [NCGC00024732-01] | 4 (inactive, where activity was below 28.6% (3σ for the present assay))
29 |  |  |  | > 9 |  | C[C@]12CC[C@@H]3c4ccc(O)cc4CC[C@H]3[C@@H]1CC[C@@H]2OC(=O)CCC1CCCC1 [NCGC00013034-01] | 
30 | 0.70 |  | 60.7 |  |  | C[C@@]12CCC(=O)C=C1CC[C@@H]1[C@@H]2[C@H](O)C[C@]2(C)[C@@H]1CC[C@]2(O)C(=O)CO [NCGC00016215-01] | 
31 | 0.77 | −6.747 | 64.0 | 0.179 |  | C[C@@]12C[C@@H](O)[C@H]3[C@@H](CCC4=CC(=O)CC[C@]43C)[C@H]1CC[C@H]2C(=O)CO [NCGC00015222-01] | 
32 |  |  |  |  | > 9 | C[C@]12CC[C@@H]3C(=CCc4cc(O)ccc43)[C@@H]1CCC2=O [NCGC00016451-01] | 4 (inactive, where activity was below 28.6% (3σ for the present assay))
